Results taken from ChEMBL document CHEMBL5321210, “N-adamantyl-anthranil amide derivatives: New selective ligands for the cannabinoid receptor subtype 2 (CB2R)” (Eur J Med Chem, 2023).
Calls of active or inactive are those of the source. The rule behind the calls is not given here.

Legend:
[1] = biological target: T1, Cannabinoid receptor 2 (Homo sapiens, UniProt P34972); test: Displacement of [3H]-CP55940 from human CB2 receptor expressed in HEK293 cell membrane at 1 uM incubated for 90 mins by radioligand competition binding assay relative to control; type: cell membranes
[2] = biological target: T2, Cannabinoid receptor 1 (Homo sapiens, UniProt P21554); test: Displacement of [3H]-CP55940 from human CB1 receptor expressed in HEK293 cell membrane at 1 uM incubated for 60 mins by radioligand competition binding assay relative to control; type: cell membranes
[3] = biological target: T1, Cannabinoid receptor 2; test: Agonist activity at human CB2 receptor expressed in CHO-K1 cells assessed as inhibition of NKH-477 induced cAMP production incubated for 30 mins by luminescence based analysis; type: functional, cell-based
[4] = biological target: T1, Cannabinoid receptor 2; test: Displacement of [3H]-CP55940 from human CB2 receptor expressed in HEK293 cell membrane assessed as inhibition constant incubated for 90 mins by radioligand competition binding assay; type: cell membranes
[5] = biological target: T1, Cannabinoid receptor 2; test: Agonist activity at human CB2 receptor expressed in CHO-K1 cells assessed as inhibition of NKH-477 induced cAMP production by measuring maximal efficacy incubated for 30 mins by luminescence based analysis relative to control; type: functional, cell-based; conditions: filed as agonist
[6] = biological target: T2, Cannabinoid receptor 1; test: Displacement of [3H]-CP55940 from human CB1 receptor expressed in HEK293 cell membrane assessed as inhibition constant incubated for 60 mins by radioligand competition binding assay; type: cell membranes
[7] = biological target: T1, Cannabinoid receptor 2; test: Antagonist activity at human CB2 receptor expressed in CHO-K1 cells assessed as reversal of JWH-133 mediated cAMP reduction preincubated with compound for 15 mins followed by JWH-133 addition and measured after 30 mins in the presence of NKH-477 by luminescence based analysis; type: functional, cell-based; conditions: filed as antagonist, time 45.0 min
[8] = system: THP-1; test: Antiinflammatory activity in PMA-differentiated human THP-1 macrophages assessed as increase in IL-4 production at 1 to 10 uM incubated for 24 hrs by ELISA coupled qRT-PCR analysis; type: functional, cell-based; conditions: dose 1-10 µM
[9] = system: THP-1; test: Antiinflammatory activity in PMA-differentiated human THP-1 macrophages assessed as increase in IL-10 production at 1 to 10 uM incubated for 24 hrs by ELISA coupled qRT-PCR analysis; type: functional, cell-based; conditions: dose 1-10 µM
[10] = system: THP-1; test: Antiinflammatory activity against LPS-activated PMA-differentiated human THP-1 macrophages assessed as increase in IL-10 production at 10 uM incubated for 24 hrs by ELISA coupled qRT-PCR analysis; type: functional, cell-based
[11] = system: THP-1; test: Antiinflammatory activity against LPS-activated PMA-differentiated human THP-1 macrophages assessed as increase in IL-4 production at 10 uM incubated for 24 hrs by ELISA coupled qRT-PCR analysis; type: functional, cell-based
[12] = system: THP-1; test: Antiinflammatory activity in human THP-1 monocytes assessed as increase in IL-4 production at 1 to 10 uM incubated for 24 hrs by ELISA coupled qRT-PCR analysis; type: functional, cell-based; conditions: dose 1-10 µM
[13] = system: THP-1; test: Antiinflammatory activity in human THP-1 monocytes assessed as increase in IL-10 production at 1 to 10 uM incubated for 24 hrs by ELISA coupled qRT-PCR analysis; type: functional, cell-based; conditions: dose 1-10 µM
[14] = system: THP-1; test: Antiinflammatory activity in human THP-1 monocytes assessed as decrease in IL-1beta production at 1 to 10 uM incubated for 24 hrs by ELISA coupled qRT-PCR analysis; type: functional, cell-based; conditions: dose 1-10 µM
[15] = system: THP-1; test: Antiinflammatory activity in human THP-1 monocytes assessed as decrease in IL-6 production at 1 to 10 uM incubated for 24 hrs by ELISA coupled qRT-PCR analysis; type: functional, cell-based; conditions: dose 1-10 µM
[16] = system: THP-1; test: Antiinflammatory activity in human THP-1 monocytes assessed as decrease in TNF-alpha production at 1 to 10 uM incubated for 24 hrs by ELISA coupled qRT-PCR analysis; type: functional, cell-based; conditions: dose 1-10 µM
[17] = system: THP-1; test: Antiinflammatory activity in human THP-1 monocytes assessed as decrease in IFN-gamma production at 1 to 10 uM incubated for 24 hrs by ELISA coupled qRT-PCR analysis; type: functional, cell-based; conditions: dose 1-10 µM
[18] = system: THP-1; test: Antiinflammatory activity against LPS-activated human THP-1 monocytes assessed as decrease in TNF-alpha production at 1 to 10 uM incubated for 24 hrs by ELISA coupled qRT-PCR analysis; type: functional, cell-based; conditions: dose 1-10 µM
[19] = system: THP-1; test: Antiinflammatory activity against LPS-activated human THP-1 monocytes assessed as decrease in IFN-gamma production at 1 to 10 uM incubated for 24 hrs by ELISA coupled qRT-PCR analysis; type: functional, cell-based; conditions: dose 1-10 µM
[20] = system: THP-1; test: Antiinflammatory activity against LPS-activated human THP-1 monocytes assessed as decrease in IL-1beta production at 1 to 10 uM incubated for 24 hrs by ELISA coupled qRT-PCR analysis; type: functional, cell-based; conditions: dose 1-10 µM
[21] = system: THP-1; test: Antiinflammatory activity against LPS-activated human THP-1 monocytes assessed as decrease in IL-6 production at 1 to 10 uM incubated for 24 hrs by ELISA coupled qRT-PCR analysis; type: functional, cell-based; conditions: dose 1-10 µM
[22] = system: THP-1; test: Antiinflammatory activity against LPS-activated human THP-1 monocytes assessed as increase in IL-4 production at 1 to 10 uM incubated for 24 hrs by ELISA coupled qRT-PCR analysis; type: functional, cell-based; conditions: dose 1-10 µM
[23] = system: THP-1; test: Antiinflammatory activity against LPS-activated human THP-1 monocytes assessed as increase in IL-10 production at 1 to 10 uM incubated for 24 hrs by ELISA coupled qRT-PCR analysis; type: functional, cell-based; conditions: dose 1-10 µM
[24] = system: THP-1; test: Antiinflammatory activity in PMA-differentiated human THP-1 macrophages assessed as decrease in IL-1beta production at 1 to 10 uM incubated for 24 hrs by ELISA coupled qRT-PCR analysis; type: functional, cell-based; conditions: dose 1-10 µM
[25] = system: THP-1; test: Antiinflammatory activity in PMA-differentiated human THP-1 macrophages assessed as decrease in IL-6 production at 1 to 10 uM incubated for 24 hrs by ELISA coupled qRT-PCR analysis; type: functional, cell-based; conditions: dose 1-10 µM
[26] = system: THP-1; test: Antiinflammatory activity in PMA-differentiated human THP-1 macrophages assessed as decrease in TNF-alpha production at 1 to 10 uM incubated for 24 hrs by ELISA coupled qRT-PCR analysis; type: functional, cell-based; conditions: dose 1-10 µM
[27] = system: THP-1; test: Antiinflammatory activity in PMA-differentiated human THP-1 macrophages assessed as decrease in IFN-gamma production at 1 to 10 uM incubated for 24 hrs by ELISA coupled qRT-PCR analysis; type: functional, cell-based; conditions: dose 1-10 µM
[28] = system: THP-1; test: Antiinflammatory activity against LPS-activated PMA-differentiated human THP-1 macrophages assessed as decrease in IFN-gamma production at 1 to 10 uM incubated for 24 hrs by ELISA coupled qRT-PCR analysis; type: functional, cell-based; conditions: dose 1-10 µM
[29] = system: THP-1; test: Antiinflammatory activity against LPS-activated PMA-differentiated human THP-1 macrophages assessed as decrease in TNF-alpha production at 1 to 10 uM incubated for 24 hrs by ELISA coupled qRT-PCR analysis; type: functional, cell-based; conditions: dose 1-10 µM
[30] = system: THP-1; test: Antiinflammatory activity against LPS-activated PMA-differentiated human THP-1 macrophages assessed as decrease in IL-1beta production at 1 to 10 uM incubated for 24 hrs by ELISA coupled qRT-PCR analysis; type: functional, cell-based; conditions: dose 1-10 µM
[31] = system: THP-1; test: Antiinflammatory activity against LPS-activated PMA-differentiated human THP-1 macrophages assessed as decrease in IL-6 production at 1 to 10 uM incubated for 24 hrs by ELISA coupled qRT-PCR analysis; type: functional, cell-based; conditions: dose 1-10 µM

T2 sequence (P21554 whole entry): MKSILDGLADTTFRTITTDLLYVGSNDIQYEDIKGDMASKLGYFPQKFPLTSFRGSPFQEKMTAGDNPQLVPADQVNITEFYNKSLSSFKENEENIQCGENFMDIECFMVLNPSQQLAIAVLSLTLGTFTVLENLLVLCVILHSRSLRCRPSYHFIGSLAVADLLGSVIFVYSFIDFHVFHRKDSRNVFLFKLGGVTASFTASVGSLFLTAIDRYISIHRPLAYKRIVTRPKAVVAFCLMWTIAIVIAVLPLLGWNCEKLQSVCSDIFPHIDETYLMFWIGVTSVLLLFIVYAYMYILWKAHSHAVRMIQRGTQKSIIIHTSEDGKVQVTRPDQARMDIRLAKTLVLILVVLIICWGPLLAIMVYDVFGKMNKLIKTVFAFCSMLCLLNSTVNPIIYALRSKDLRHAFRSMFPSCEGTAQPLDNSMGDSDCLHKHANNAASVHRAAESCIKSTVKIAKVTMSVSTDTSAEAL
T1 sequence (P34972 whole entry): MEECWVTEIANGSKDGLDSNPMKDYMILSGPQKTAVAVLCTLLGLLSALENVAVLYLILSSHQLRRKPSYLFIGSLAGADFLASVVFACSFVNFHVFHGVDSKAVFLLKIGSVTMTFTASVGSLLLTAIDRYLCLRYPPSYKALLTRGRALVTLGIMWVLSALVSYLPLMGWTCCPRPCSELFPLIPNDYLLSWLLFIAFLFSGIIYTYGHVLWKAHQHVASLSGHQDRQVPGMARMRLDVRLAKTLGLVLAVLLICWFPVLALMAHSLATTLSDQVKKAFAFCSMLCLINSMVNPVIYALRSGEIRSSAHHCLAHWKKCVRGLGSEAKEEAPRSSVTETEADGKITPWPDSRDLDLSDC

CCCCCNc1ccc(-c2cccc(C)c2)cc1C(=O)NC12CC3CC(CC(C3)C1)C2
Activity [1]: 37% | Activity [2]: 14%

CCCCCCNc1ccc(Br)cc1C(=O)NC12CC3CC(CC(C3)C1)C2
Activity [1]: 26% | Activity [2]: 17%

CCCC(C)(C)c1ccc2c(c1)OC(C)(C)[C@@H]1CC=C(C)C[C@@H]21
EC50 [3]: 169000 nM

CCCCCCCNc1ccc(-c2ccccc2)cc1C(=O)NC12CC3CC(CC(C3)C1)C2
Ki [4]: 1180 nM | Activity [2]: 22%

COc1ccc2c(c1)c(CCN1CCOCC1)c(C)n2C(=O)c1cccc(Cl)c1Cl
Ki [4]: 6.9 nM

CCCCCCNc1ccccc1C(=O)NC12CC3CC(CC(C3)C1)C2
Ki [4]: 485 nM | Activity [2]: 6%

CCCCCNc1ccc(-c2cccnc2)cc1C(=O)NC12CC3CC(CC(C3)C1)C2
Ki [4]: 330 nM | Activity [2]: 1% | EC50 [3]: 10400 nM | Emax [5]: 98.1%

CCCCCCNc1ccc(-c2cccnc2)cc1C(=O)NC12CC3CC(CC(C3)C1)C2
Ki [4]: 6500 nM | Activity [2]: 9%

CCCCCCCNc1ccc(-c2cccnc2)cc1C(=O)NC12CC3CC(CC(C3)C1)C2
Activity [1]: 31% | Activity [2]: 16%

Cc1c(C(=O)NC23CC4CC(CC(C4)C2)C3)nn(CCCCCO)c1-c1ccccc1
Ki ([4]; hek293): 0.08 nM

CCCCCCCNc1ccccc1C(=O)NC12CC3CC(CC(C3)C1)C2
Ki [4]: 923 nM | Activity [2]: 4%

CCCCCNc1ccc(-c2ccc(C(=O)OC)cc2)cc1C(=O)NC12CC3CC(CC(C3)C1)C2
Activity [1]: 12% | Activity [2]: 6%

CCCCCCNc1ccc(-c2ccccc2)cc1C(=O)NC12CC3CC(CC(C3)C1)C2
Ki [4]: 209 nM | Activity [2]: 35%

CCCCCNc1ccc(-c2ccc(C)cc2)cc1C(=O)NC12CC3CC(CC(C3)C1)C2
Ki [4]: 129 nM | Activity [2]: 16%

CCCCCNc1ccc(Br)cc1C(=O)NC12CC3CC(CC(C3)C1)C2
Ki [4]: 456 nM | Activity [2]: 5%

CCCCCNc1ccc(-c2ccc(F)cc2)cc1C(=O)NC12CC3CC(CC(C3)C1)C2
Ki [4]: 89.5 nM | Ki [6]: 754 nM

CCCCCNc1ccc(-c2ccc(C(N)=O)cc2)cc1C(=O)NC12CC3CC(CC(C3)C1)C2
Activity [1]: 19% | Activity [2]: 14%

CCCCCCCNc1ccc(Br)cc1C(=O)NC12CC3CC(CC(C3)C1)C2
Activity [1]: 16% | Activity [2]: 8%

CCCCCNc1ccc(-c2cccs2)cc1C(=O)NC12CC3CC(CC(C3)C1)C2
Ki [4]: 2600 nM | Activity [2]: 15%

CCCCCCNc1ccc(-c2cccs2)cc1C(=O)NC12CC3CC(CC(C3)C1)C2
Ki [4]: 465 nM | Activity [2]: 32%

CCCCCNc1ccc(-c2ccccc2)cc1C(=O)NC12CC3CC(CC(C3)C1)C2
Ki [4]: 47.8 nM | Activity [2]: 5% | Activity [7]: Active | Activity [8]: inactive | Activity [9]: inactive | Activity [10]: inactive | Activity [11]: inactive | Activity [12]: inactive | Activity [13]: inactive | Activity [14]: inactive | Activity [15]: inactive | Activity [16]: inactive | Activity [17]: inactive | Activity [18]: inactive | Activity [19]: inactive | Activity [20]: inactive | Activity [21]: inactive | Activity [22]: inactive | Activity [23]: inactive | Activity [24]: inactive | Activity [25]: inactive | Activity [26]: inactive | Activity [27]: inactive | Activity [28]: inactive | Activity [29]: inactive | Activity [30]: inactive | Activity [31]: inactive

CCCCCCCNc1ccc(-c2cccs2)cc1C(=O)NC12CC3CC(CC(C3)C1)C2
Ki [4]: 160 nM | Activity [2]: 7% | EC50 [3]: 5600 nM | Emax [5]: 75%

CCCCCNc1ccc(-c2cccc(C(N)=O)c2)cc1C(=O)NC12CC3CC(CC(C3)C1)C2
Activity [1]: 21% | Activity [2]: 3%

CCCCCNc1ccc(-c2ccc(OC)cc2)cc1C(=O)NC12CC3CC(CC(C3)C1)C2
Ki [4]: 148 nM | Activity [2]: 23%

CCCCCNc1ccc(-c2ccccc2)cc1C(=O)NC1CCCCC1
Activity [1]: 21% | Activity [2]: 3%

CCCCCNc1ccc(-c2cccc(OC)c2)cc1C(=O)NC12CC3CC(CC(C3)C1)C2
Activity [1]: 25% | Activity [2]: 28%

CCCCCNc1ccc(-c2cccc(F)c2)cc1C(=O)NC12CC3CC(CC(C3)C1)C2
Ki [4]: 71 nM | Activity ([2]; filed as agonist): 42% | EC50 [3]: 5250 nM | Emax [5]: 86.6%
